Test results taken from patent EP4692321A1, “CELL STRUCTURE PRODUCTION METHOD” (Toppan Holdings Inc., priority 2023, dated 2024).

Experiments:
vascularized liver model [1] = test: Vascular toxicity: CD31 immunostaining and blood vessel length after monocrotaline (Test Example 5); type: cell-based, human; settings: vascularized liver model compared to other models; 0 to 600 µM added on Day 7, 7 further days; relative to no monocrotaline = 100%
Protocol: (§1) Except for using a 24-transwell as the culture vessel, culturing a cell mixture of 1.95 × 10^4 human hepatocytes (PXB Cells (registered trademark); manufactured by PhoenixBio Co., Ltd.) and 3.0 × 10^3 immortalized sinusoidal endothelial cells (SEC; manufactured by Sciencell, Product No. 5000) using the HCM medium including 50 ng/mL VEGF-A and 50 ng/mL VEGF-C as vascular development factors and 1 v/v% vascular maintenance factor cocktail,culturing a cell mixture of human hepatocytes (PXB Cells (registered trademark); manufactured by PhoenixBio Co., Ltd.), 7.5 × 10^3 immortalized sinusoidal endothelial cells (SEC, manufactured by Sciencell, Product No. "5000"), and 3.0 × 10^3 hepatic stellate cells (LX2; manufactured by Sigma-Aldrich) using the HCM medium including 1 v/v% vascular maintenance factor cocktail, orculturing a cell mixture of 2.1 × 10^3 immortalized sinusoidal endothelial cells (SEC; manufactured by Sciencell, Product No. "5000") and 9.0 × 10^3 hepatic stellate cells (LX2; manufactured by Sigma-Aldrich) using the HCM medium including 1 v/v% vascular maintenance factor cocktail, cell mixtures were cultured and cell structures were obtained in the same manner as in Test Example 4. […]
In addition, vascular structures were extracted from the microscopic images shown in FIGS. 8 and 9, and the blood vessel lengths of the cell structures were measured. […]

vascularized liver model [2] = test: Cell viability by ATP assay (CellTiter-Glo 3D) after monocrotaline (Test Example 5); type: cell-based, human; settings: vascularized liver model compared to other models, 0 to 600 µM added on Day 7, 7 further days
Protocol: as §1
In addition, the cell viability of the similarly produced cell structure was also quantified by an ATP assay. […]

C[C@H]1C(=O)O[C@@H]2CCN3CC=C(COC(=O)[C@](C)(O)[C@]1(C)O)[C@H]23 [monocrotaline]
blood vessel length (vascularized liver model [1]): notably shorter blood vessel length
cell viability (vascularized liver model [2]): concentration-dependent decrease in cell viability
